Measurements: patent US7601713B2, “Kinase inhibitors and their uses” (Rigel Pharmaceuticals, Inc., priority 2005, dated 2009)
Where two headings read alike, the source gives them in different places. Each block holds one compound with its values, some of them ahead of it.

Tests used:
[1] = test system: tumor cell lines; settings: cited from earlier work; for antiproliferative activity against tumor cell types: in vitro assays, variety of tumor cell lines
[2] = target: Lck kinase (Homo sapiens, UniProt P06239); assay: Lck kinase inhibition; assay type: biochemical
[3] = target: Syk kinase (Homo sapiens, UniProt P43405); assay: cell-based Syk assay; settings: read-out: IC50, inhibition of Syk kinase
[4] = target: kinase Lyn b (Homo sapiens, UniProt P07948); assay: Lyn b kinase inhibition; assay type: biochemical
[5] = test system: JAK kinases (JAK1 and JAK3); assay: JAK inhibition: IL-4-stimulated CD23 upregulation in human Ramos B-cells, FACS; assay type: cell-based; settings: IL-4 stimulated Ramos B-cells, read-out: IC50, inhibition of JAK kinases in cellular assay
Experimental: JAK inhibition was tested in human Ramos B-cells activated with IL-4. Twenty to 24 hours post stimulation, the cells are stained for upregulation of CD23 and analyzed by FACS. Stimulation of the B-cells with IL-4 leads to the activation of the JAK/STAT pathway through phosphorylation of the JAK kinase JAK1 and JAK3, which in turn phosphorylate and activate transcription of factor […].
For the assay, human Ramos B-cells (ATCC, Catalog No. CRL-1596) are cultured in RPMI 1640 medium (Cellgro, Catalog No. 10-040-CM) containing 10% fetal bovine serum (JRH, Catalog No. 12106-500M) according to the propagation protocol supplied with the cells, and maintained at a density of approximately 3.5×10^5 cells/ml. The day before the assay, the cells are diluted to 3.5×10^5 cells/ml to insure they are in the logarithmic growth phase. The cells are spun down, and suspended in RPMI 1640 medium containing 5% fetal bovine serum to a density of 3.5×10^4 cells/ml and aliquots dispensed into a 96-well tissue culture plate. Cells are incubated with test compound (dissolved in DMSO) or DMSO (control) for 1 hr at 37° C. and then stimulated with IL-4 (Pepotech, Catalog No. 200-04) for 20-24 hours (final concentration is 50 Units/ml). Cells are then spun down, stained with anti-CD23-PE antibody (BD Pharmigen, Catalog No. 555711) and analyzed by FACS.

[6] = target: T1, Axl kinase (Homo sapiens, UniProt P30530); assay: Phospho-Akt in-cell Western assay (Axl antibody cross-linking, Hela cells); assay type: cell-based; settings: phospho-Akt readout, read-out: IC50, inhibition of Axl kinase
T1 construct: endogenous in cells; host or cells: HeLa cells
T1 sequence (P30530 26-894): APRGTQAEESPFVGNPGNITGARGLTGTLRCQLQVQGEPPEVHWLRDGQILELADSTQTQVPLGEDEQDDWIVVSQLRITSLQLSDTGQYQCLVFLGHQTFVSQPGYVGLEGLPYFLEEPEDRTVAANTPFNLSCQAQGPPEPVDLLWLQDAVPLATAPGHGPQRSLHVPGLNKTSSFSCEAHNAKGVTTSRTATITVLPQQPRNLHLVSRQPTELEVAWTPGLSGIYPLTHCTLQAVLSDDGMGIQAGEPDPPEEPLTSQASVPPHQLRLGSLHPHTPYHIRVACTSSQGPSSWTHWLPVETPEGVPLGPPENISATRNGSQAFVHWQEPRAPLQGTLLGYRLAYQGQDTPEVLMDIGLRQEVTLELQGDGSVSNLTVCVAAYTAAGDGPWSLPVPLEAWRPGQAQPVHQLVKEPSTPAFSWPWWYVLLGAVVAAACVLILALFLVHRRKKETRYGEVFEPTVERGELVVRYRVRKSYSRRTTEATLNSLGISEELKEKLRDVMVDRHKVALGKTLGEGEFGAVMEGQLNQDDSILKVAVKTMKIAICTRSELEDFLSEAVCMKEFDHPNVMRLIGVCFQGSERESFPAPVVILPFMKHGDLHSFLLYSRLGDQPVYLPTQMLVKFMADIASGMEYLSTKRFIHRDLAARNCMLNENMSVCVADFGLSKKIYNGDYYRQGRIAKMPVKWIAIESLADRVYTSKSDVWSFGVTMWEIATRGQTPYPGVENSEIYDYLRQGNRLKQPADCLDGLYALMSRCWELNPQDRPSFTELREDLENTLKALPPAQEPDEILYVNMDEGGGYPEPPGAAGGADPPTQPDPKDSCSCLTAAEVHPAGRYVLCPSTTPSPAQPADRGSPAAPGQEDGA
Outline: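 HeLa cells were starved 24 h in 0.5% FCS with 500 ng/mL Axl/Fc, pretreated with compound 1 h at 37 °C, then stimulated 5 min by cross-linked anti-Axl antibodies. Phospho-Akt was detected by in-cell chemiluminescent immunoassay and normalized to crystal violet cell number at 590 nm.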

Chain of kinase Lyn b (P07948 1-491 isoform P07948-2): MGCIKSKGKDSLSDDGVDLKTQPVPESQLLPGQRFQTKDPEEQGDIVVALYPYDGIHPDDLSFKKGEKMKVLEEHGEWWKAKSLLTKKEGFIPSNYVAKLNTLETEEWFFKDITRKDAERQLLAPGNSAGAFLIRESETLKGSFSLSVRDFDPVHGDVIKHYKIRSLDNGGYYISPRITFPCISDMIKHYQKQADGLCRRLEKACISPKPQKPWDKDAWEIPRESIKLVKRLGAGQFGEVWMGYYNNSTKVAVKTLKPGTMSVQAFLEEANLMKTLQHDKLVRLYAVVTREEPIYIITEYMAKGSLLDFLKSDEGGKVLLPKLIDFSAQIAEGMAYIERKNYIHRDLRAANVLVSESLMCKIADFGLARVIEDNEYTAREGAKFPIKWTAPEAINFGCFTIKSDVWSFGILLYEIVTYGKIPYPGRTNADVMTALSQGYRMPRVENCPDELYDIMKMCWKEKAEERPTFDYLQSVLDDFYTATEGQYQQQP
Chain of Lck kinase (P06239 whole entry): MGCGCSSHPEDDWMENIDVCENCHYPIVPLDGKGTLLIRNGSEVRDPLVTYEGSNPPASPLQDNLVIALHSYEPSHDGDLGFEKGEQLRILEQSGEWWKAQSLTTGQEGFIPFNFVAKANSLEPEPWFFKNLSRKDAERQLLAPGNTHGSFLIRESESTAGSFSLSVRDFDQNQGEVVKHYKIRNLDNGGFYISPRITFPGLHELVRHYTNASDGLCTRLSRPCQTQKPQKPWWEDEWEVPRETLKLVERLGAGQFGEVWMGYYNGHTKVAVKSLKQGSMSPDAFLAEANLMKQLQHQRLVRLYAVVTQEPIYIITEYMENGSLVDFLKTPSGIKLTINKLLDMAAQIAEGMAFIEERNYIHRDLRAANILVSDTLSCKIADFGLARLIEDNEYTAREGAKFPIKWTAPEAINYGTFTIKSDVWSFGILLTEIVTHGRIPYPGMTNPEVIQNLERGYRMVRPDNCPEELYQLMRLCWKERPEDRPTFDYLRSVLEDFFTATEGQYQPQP

IC50 [2]: < 5 µM
IC50 [3]: < 10 µM
SMILES: Cc1cccc(Nc2nc(NC3CC4CCC3C4)c3nc[nH]c3n2)c1 (racemic) [Compound 151, Racemic-(2-exo)-N6-(bicyclo[2.2.1]hept-2-yl)-N2-(3-methyl)phenyl-1H-purine-2,6-diamine]

IC50 [2]: < 5 µM
SMILES: Cc1cccc(Nc2nc(NC3C4CCC(C4)C3C(N)=O)c3cc[nH]c3n2)c1 (racemic) [Compound 165, Racemic-(2-exo,3-exo)-N4-(3-aminocarbonylbicyclo[2.2. 1]hept-2-yl)-N2-(3-methyl)phenyl-1H-pyrrolo[2,3-d]pyrimidine-2,4-diamine]

IC50 [2]: < 10 µM
IC50 [4]: > 10 µM
IC50 [3]: < 10 µM
SMILES: COc1ccccc1Nc1nc(NC2C3C=CC(C3)C2C(N)=O)c2nc[nH]c2n1 (racemic) [Compound 136, Racemic-(2-exo,3-exo-)-N6-(3-aminocarbonylbicyclo[2.2. 1]hept-5-en-2-yl)-N2-(2-methoxy)phenyl-1H-purine-2,6-diamine]

IC50 [4]: < 1 µM
SMILES: NC(=O)[C@@H]1[C@H](Nc2nc(Nc3ccc(Cc4ccncc4)cc3)nc3[nH]cnc23)[C@H]2C=C[C@@H]1C2 [Compound 148, (1R,2R,3S,4S)-N6-(3-Aminocarbonylbicyclo[2.2. 1]hept-5-en-2-yl)-N2-[4-(4-pyridinylmethyl)phenyl]-1H-purine-2,6-diamine]

IC50 [5]: < 5 µM
IC50 [6]: > 10 µM
IC50 [3]: < 5 µM
SMILES: Cc1csc2c(NC3C4C=CC(C4)C3C(N)=O)nc(Nc3ccc4[nH]ccc4c3)nc12 (racemic) [Compound 239, Racemic-(2-exo,3-aminocarbonylbicyclo [2.2.1]hept-5-en-2-yl)-N2-[1H-indol-5-yl]-thieno[3,2-d]pyrimidine-2,4-diamine]

IC50 [4]: < 1 µM
SMILES: COc1cccc(Nc2nc(NC3CC4CCC3C4)c3nc[nH]c3n2)c1 (racemic) [Compound 154, Racemic-(2-exo)-N6-(bicyclo[2.2.1]hept-2-yl)-N2-(3-methoxy)phenyl-1H-purine-2,6-diamine]

IC50 [5]: < 5 µM
IC50 [6]: > 10 µM
IC50 [3]: > 10 µM
SMILES: COc1cc(Nc2nc(NC3C4C=CC(C4)C3C(N)=O)c3scc(C)c3n2)cc(OC)c1OC (racemic) [Compound 238]

IC50 [5]: < 5 µM
IC50 [2]: < 5 µM
IC50 [3]: < 10 µM
SMILES: CC(C)Oc1cccc(Nc2nc(NC3CC4CCC3C4)c3nc[nH]c3n2)c1 (racemic) [Compound 153, Racemic-(2-exo)-N6-(bicyclo[2.2.1]hept-2-yl)-N2-(3-isopropoxy)phenyl-1H-purine-2,6-diamine]

IC50 [5]: > 10 µM
IC50 [2]: < 5 µM
SMILES: NC(=O)c1c[nH]c2ccc(Nc3nc(NC4C5C=CC(C5)C4C(N)=O)c4nc[nH]c4n3)cc12 (racemic) [Compound 152, Racemic-(2-exo,3-exo-)-N6-(3-aminocarbonylbicyclo[2.2. 1]hept-5-en-2-yl)-N2-(3-aminocarbonyl-1H-indol-5-yl)-1H-purine-2,6-diamine]

More lines, now with the values behind:

SMILES: Cc1cc(Nc2ncc(F)c(NC3CCCC3C(N)=O)n2)ccc1N1CCN(C)CC1 [trans (1S,2S) diastereomer, N4-(2-aminocarbonylcyclopent-1-yl)-5-fluoro-N2-[4-(4-methylpiperazin-1-yl)-3-methylphenyl]-2,4-pyrimidinediamine]
antiproliferative activity against tumor cell types [1]: relatively inactive
antiproliferative activity against tumor cell types ([1]; listed as trans(1S,2S)): relatively inactive

SMILES: CCOc1cccc(Nc2nc(NC3C4C=CC(C4)C3C(N)=O)c3nc[nH]c3n2)c1 (racemic) [Compound 131, Racemic-(2-exo,3-exo)-N6-(3-aminocarbonylbicyclo[2.2. 1]hept-5-en-2-yl)-N2-(3-ethoxy)phenyl-1H-purine-2,6-diamine]
IC50 [4]: < 1 µM

SMILES: Cc1cc(Nc2ncc(F)c(NC3C4C=CC(C4)C3C(N)=O)n2)ccc1N1CCN(C)CC1 (racemic) [cis exo-exo racemate, N4-(3-aminocarbonylbicyclo [2.2.1]hept-5-en-2-yl)-5-fluoro-N2-[3-methyl-4-(4-methylpiperazin-1-yl)phenyl]-2,4-pyrimidinediamine]
potency of exo-exo racemate relative to endo-endo racemate ([1]; all cell lines tested): approximately twenty-fold
antiproliferative activity against tumor cell types [1]: exhibit antiproliferative activity

SMILES: NC(=O)[C@@H]1[C@H](Nc2nc(Nc3cccc(F)c3)nc3[nH]cnc23)[C@H]2C=C[C@@H]1C2 [Compound 109, (1R,2R,3S,4S)-N6-(3-Aminocarbonylbicyclo[2.2. 1]hept-5-en-2-yl)-N2-(3-fluoro)phenyl-1H-purine-2,6-diamine]
IC50 [4]: < 1 µM

SMILES: Cc1cc(Nc2ncc(F)c(NC3C4C=CC(C4)C3C(N)=O)n2)ccc1N1CCN(C)CC1 [(1S,2S,3R,4R) diastereomer, N4-(3-aminocarbonylbicyclo [2.2.1]hept-5-en-2-yl)-5-fluoro-N2-[3-methyl-4-(4-methylpiperazin-1-yl)phenyl]-2,4-pyrimidinediamine]
IC50s against tumor cell lines ([1]; isolated stereoisomers): micromolar range

SMILES: NC(=O)C1C2C=CC(C2)C1Nc1nc(Nc2cccc3[nH]ccc23)nc2[nH]cnc12 (racemic) [Compound 135, Racemic-(2-exo,3-exo)-N6-(3-aminocarbonylbicyclo[2.2. 1]hept-5-en-2-yl)-N2-(1H-indol-4-yl)-1H-purine-2,6-diamine]
IC50 [5]: > 10 µM
IC50 [2]: < 5 µM

SMILES: Cc1ccc(Nc2nc(NC3C4C=CC(C4)C3C(N)=O)c3nc[nH]c3n2)cc1F (racemic) [Compound 134, Racemic-(2-exo,3-exo)-N6-(3-aminocarbonylbicyclo[2.2. 1]hept-5-en-2-yl)-N2-(3-fluoro-4-methy)phenyl-1H-purine-2,6-diamine]
IC50 [4]: < 1 µM

SMILES: NC(=O)[C@H]1[C@@H](Nc2nc(Nc3cccc(OCCN4CCOCC4)c3)nc3[nH]cnc23)[C@@H]2C=C[C@H]1C2 [Compound 113, (1S,2S,3R,4R)-N6-(3-Aminocarbonylbicyclo[2.2. 1]hept-5-en-2-yl)-N2-[3-(2-morpholin-4-yl-ethoxy)phenyl]-1H-purine-2,6-diamine]
IC50 [4]: < 1 µM

SMILES: NC(=O)[C@@H]1[C@H](Nc2nc(Nc3cccc(OCCN4CCOCC4)c3)nc3[nH]cnc23)[C@H]2C=C[C@@H]1C2 [Compound 112, (1R,2R,3S,4S)-N6-(3-Aminocarbonylbicyclo[2.2. 1]hept-5-en-2-yl)-N2-[3-(2-morpholin-4-yl-ethoxy)phenyl]-1H-purine-2,6-diamine]
IC50 [4]: < 1 µM

SMILES: CNC(=O)COc1cccc(Nc2nc(NC3C4C=CC(C4)C3C(N)=O)c3nc[nH]c3n2)c1 (racemic) [Compound 104]
IC50 [4]: < 1 µM

SMILES: NC(=O)C1C2C=CC(C2)C1Nc1nc(Nc2ccc3c(c2)OCC(=O)N3)nc2[nH]cnc12 (racemic) [Compound 107, Racemic-(2-exo,3-exo)-N6-(3-aminocarbonylbicyclo[2.2. 1]hept-5-en-2-yl)-N2-(3,4-dihydro-3-oxo-2H-1,4-benzoxazin-7-yl)-1H-purine-2,6-diamine]
IC50 [4]: < 1 µM
